According to US8846411B2, “Derivatives, reagents, and immunoassay for detecting levetiracetam” (Microgenics Corporation, priority 2009, dated 2014):

Key:
[1] = cited from earlier work
[2] = test system: anti-levetiracetam antibody prepared with immunogen 18a; test: Antibody avidity by ELISA binding inhibition study with levetiracetam; conditions: Sheep No. 5479 antibody
Procedure: The avidity of the anti-levetiracetam antibody prepared with immunogen 18a for various levetiracetam derivatives were determined by a binding inhibition study. Samples were prepared in 1 mL of PBS at pH 7.4 with 0.1% BSA. A composition having 30% Bmax titer or 50% Bmax titer was used to divide the titer value as obtained in Example 38 into approximately half the titer value. Using 30% Bmax, an antibody titer of 1:10000 was diluted to […] during the sample preparation stage. About 50 μL of levetiracetam at different concentrations or calibrator values, (0, 5, 10, 20, 40, 80 μg/ml) were applied to a plate as prepared in accordance with Example 38. About 50 μL of the diluted antibody was dispensed into the plate, and the compositions in the plate were mixed for 1 min on a horizontal plate shaker. No levetiracetam or anti-levetiracetam antibody was added to the first row of the plate, which served as a negative control. A second row with anti-levetiracetam antibody but without levetiracetam was used as the positive control. The plate was incubated for 60 min and washed three times with 250 μL of PBS at pH 7.4 with 0.05% Tween 20. About 125 μL of a diluted derivative such as 18b or 19 in PBS at pH 7.4 was added to each well of the plate. The plate was incubated for 60 min at 37° C. and washed as described above. Approximately 125 μL of ABTS substrate was added to each well of the plate and incubated for 20 min.

B/Bo ([2]; Levetiracetam 5 μg/mL, Antigen 18b) | B/Bo ([2]; Levetiracetam 5 μg/mL, Antigen 19) | B/Bo ([2]; Levetiracetam 10 μg/mL, Antigen 18b) | B/Bo ([2]; Levetiracetam 10 μg/mL, Antigen 19) | B/Bo ([2]; Levetiracetam 20 μg/mL, Antigen 18b) | B/Bo ([2]; Levetiracetam 20 μg/mL, Antigen 19) | B/Bo ([2]; Levetiracetam 40 μg/mL, Antigen 18b) | B/Bo ([2]; Levetiracetam 40 μg/mL, Antigen 19) | B/Bo ([2]; Levetiracetam 80 μg/mL, Antigen 18b) | B/Bo ([2]; Levetiracetam 80 μg/mL, Antigen 19) | SMILES | share of the administered dose accounted for by metabolite excreted in urine ([1]; urine, after administration of LEV) | nominal therapeutic range ([1]; in vivo) | optimal trough serum/plasma concentration range ([1]; trough, serum/plasma) | given dose excreted unchanged in urine ([1]; urine, elimination via the kidney)
 |  |  |  |  |  |  |  |  |  | O=C(O)CCCN1CCCC1=O [2-pyrrolidone-N-butyric acid] | approximately 27% |  |  | 
0.96 | 0.98 | 0.98 | 0.91 | 0.90 | 0.86 | 0.88 | 0.78 | 0.87 | 0.77 | CC[C@@H](C(N)=O)N1CCCC1=O [Levetiracetam, (−)-(S)-α-ethyl-2-oxo-1-pyrrolidine acetamide] |  | 6 to 20 µg/mL | 10 to 60 mg/L | approximately 64%
